Measurements published in US20190225650A1, “PEPTIDOMIMETIC MACROCYCLES AND USE THEREOF IN REGULATING HIF1ALPHA” (AILERON THERAPEUTICS, INC., priority 2013, published 2019).
Bridge positions count the residues as written; N and C are the ends. Square brackets hold non-standard residues; d marks the D form. Peptide text beside a SMILES is read from it. R8 = C=CCCCCCC[C@@](C)(N)C(=O)O; S5 = C=CCCC[C@](C)(N)C(=O)O; Nle = CCCC[C@H](N)C(=O)O

Columns and labels:
[1] = biological target: T1, flag-tagged HIF1α (AA 786-826) / His6-tagged p300 (AA 323-423) complex (Homo sapiens, UniProt Q09472); assay: HIF1α p300 displacement assay (TR FRET, +CHAPS); type: binding; conditions: read-out: IC50 (nM) (HIF1α_p300 Displacement + CHAPS)
T1 construct: His6-tagged p300 (AA 323-423); made in house; host or cells: E. coli (pETDuet vector)
In short: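 In this TR-FRET displacement format, peptides compete HIF1α C-terminal transactivation domain off p300-CH. They were preincubated 1 h at room temperature with 300 nM complex in HEPES pH 7.4/NaCl buffer with 7.5 mM CHAPS and 1 mM DTT. Anti-His-D2 (4 nM) and anti-Flag-K (0.5 μM) followed for 2 h, and a one-site fit of the fluorescence ratio gave IC50.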

[2] = system: HRE-bla ME-180 cells; assay: Reporter gene assay (HRE-bla ME-180 HIF reporter, GeneBLAzer); type: cell-based, human; conditions: for EC50: 24 hour normoxia
In short: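 A FRET β-lactamase readout of HIF transcription was used. After compound treatment in 0.3% DMSO/media under normoxic conditions, 20 μl of 6× LiveBLAzer-FRET B/G (CCF4-AM) substrate was added. Plates sat 3 hr at room temperature in the dark and were read at 409 Ex/460Em and 409Ex/530Em on a Synergy 2. Inhibition was compared against DMSO vehicle controls, with chetomin as positive control.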

[3] = system: HRE-bla ME-180 cells; assay: Cell proliferation assay (viability, MTT, 1% FBS); type: cell-based, human
In short: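 Viable cell number was measured with the CellTiter 96 (MTT) kit after compounds were applied for a 16 h normoxic (21% O2) pretreatment, followed by further normoxic or hypoxic (1% O2) culture. Cells: 2×10^4 ME-180 per well, Opti-MEM + 1% FBS, 0.5% DMSO vehicle.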

| IC50 [1] [nM] | EC50 [2] [µM] | SMILES | 18 h Avg % max inhibition at top conc (HIF Rptr-24 hrs normoxia) (μM) [2] | Viability 1% FBS AVG (MTT V3-24 hr Normoxia) (μM) [3] |
| --- | --- | --- | --- | --- |
| 200 to 400 | ≤ 5 | CCCC[C@H](NC(=O)[C@H](C)NC(=O)[C@]1(C)CCCC=CCCCCCC[C@@](C)(NC(=O)[C@H](CCC(=O)O)NC(=O)[C@H](CC(=O)O)NC(=O)[C@@H](NC(=O)[C@H](Cc2ccccc2)NC(C)=O)[C@@H](C)CC)C(=O)N[C@@H](C(C)C)C(=O)N[C@@H](CC(C)C)C(=O)N[C@@H](CCCC)C(=O)N[C@@H](CO)C(=O)N[C@@H](CC(C)C)C(=O)N[C@@H](C(C)C)C(=O)N1)C(=O)N[C@@H](C)C(=O)N[C@@H](CC(C)C)C(N)=O [SP-196] (Ac-FIDE[R8]VL[Nle]SLV[S5]A[Nle]AL-NH2; staple 5-12) | ++++ (≥50: ++++) | ++++ (≥30: ++++) |
| > 700 | 5 to 15 | CCCC[C@H](NC(=O)[C@H](CCC(=O)O)NC(=O)[C@]1(C)CCCC=CCCCCCC[C@@](C)(NC(=O)[C@H](CCC(=O)O)NC(=O)[C@H](C)NC(=O)[C@@H](NC(=O)[C@H](Cc2ccccc2)NC(C)=O)[C@@H](C)CC)C(=O)N[C@@H](C(C)C)C(=O)N[C@@H](CC(C)C)C(=O)N[C@@H](CCCC)C(=O)N[C@@H](CO)C(=O)N[C@@H](CC(C)C)C(=O)N[C@@H](C(C)C)C(=O)N1)C(=O)N[C@@H](C)C(=O)N[C@@H](CC(C)C)C(N)=O [SP-197] (Ac-FIAE[R8]VL[Nle]SLV[S5]E[Nle]AL-NH2; staple 5-12) | ++++ (≥50: ++++) | ++++ (≥30: ++++) |
| 200 to 400 | > 30 | CCCC[C@@H]1NC(=O)[C@H](CC(C)C)NC(=O)[C@](C)(NC(=O)[C@H](CCC(=O)O)NC(=O)[C@H](CCC(=O)O)NC(=O)[C@H](CC(=O)O)NC(=O)[C@@H](NC(=O)[C@H](Cc2ccccc2)NC(C)=O)[C@@H](C)CC)CCCCCCC=CCCC[C@@](C)(C(=O)N[C@@H](CCCC)C(=O)N[C@@H](C)C(=O)N[C@@H](CC(C)C)C(N)=O)NC(=O)[C@H]([C@@H](C)CC)NC(=O)[C@H](C(C)C)NC(=O)[C@H](CC(C)C)NC(=O)[C@H](CO)NC1=O [SP-199] (Ac-FIDEE[R8]L[Nle]SLVI[S5][Nle]AL-NH2; staple 6-13) | + (<10: +) | ++++ (≥30: ++++) |
| > 700 | 5 to 15 | CCCC[C@@H]1NC(=O)[C@H](CC(C)C)NC(=O)[C@H](CC(N)=O)NC(=O)[C@@](C)(NC(=O)[C@H](CCC(=O)O)NC(=O)[C@H](CC(=O)O)NC(=O)[C@@H](NC(=O)[C@H](Cc2ccccc2)NC(C)=O)[C@@H](C)CC)CCCC=CCCCC2(CCCC=CCCC[C@](C)(C(=O)N[C@@H](CCCC)C(=O)N[C@@H](C)C(=O)N[C@@H](CC(C)C)C(N)=O)NC(=O)[C@H]([C@@H](C)CC)NC(=O)[C@H](C(C)C)NC(=O)[C@H](CC(C)C)NC2=O)NC1=O (stereo partly drawn) [SP-208] | +++ (≤25 but <50: +++) | ++ (≤5 but <15: ++) |

More lines, now with the values behind:

| SMILES | IC50 [1] [nM] | EC50 [2] [µM] | 18 h Avg % max inhibition at top conc (HIF Rptr-24 hrs normoxia) (μM) [2] | Viability 1% FBS AVG (MTT V3-24 hr Normoxia) (μM) [3] |
| --- | --- | --- | --- | --- |
| CCCC[C@@H]1NC(=O)[C@H](CC(C)C)NC(=O)[C@](C)(NC(=O)[C@H](CCC(=O)O)NC(=O)[C@H](CCC(=O)O)NC(=O)[C@H](CC(=O)O)NC(=O)[C@@H](NC(=O)[C@H](Cc2ccccc2)NC(C)=O)[C@@H](C)CC)CCCCCCC=CCCC[C@@](C)(C(=O)N[C@@H](CCCC)C(=O)N[C@@H](C)C(=O)N[C@@H](CC(C)C)C(=O)N[C@@H](CC(=O)O)C(=O)N[C@@H](CCCNC(=N)N)C(=O)N[C@H](C(N)=O)[C@@H](C)CC)NC(=O)[C@H]([C@@H](C)CC)NC(=O)[C@H](C(C)C)NC(=O)[C@H](CC(C)C)NC(=O)[C@H](CO)NC1=O [SP-200] (Ac-FIDEE[R8]L[Nle]SLVI[S5][Nle]ALDRI-NH2; staple 6-13) | ≤ 200 | > 30 | ++++ (≥50: ++++) | ++++ (≥30: ++++) |
| CCCC[C@H](NC(=O)[C@@]1(C)CCCC=CCCCC2(CCCC=CCCC[C@](C)(NC(=O)[C@H](CCC(=O)O)NC(=O)[C@H](CC(=O)O)NC(=O)[C@@H](NC(=O)[C@H](Cc3ccccc3)NC(C)=O)[C@@H](C)CC)C(=O)N[C@@H](C(C)C)C(=O)N[C@@H](CC(C)C)C(=O)N[C@@H](CCC(=O)O)C(=O)N2)C(=O)N[C@@H](CC(C)C)C(=O)N[C@@H](C(C)C)C(=O)N[C@@H]([C@@H](C)CC)C(=O)N1)C(=O)N[C@@H](C)C(=O)N[C@@H](CC(C)C)C(N)=O (stereo partly drawn) [SP-205] | 200 to 400 | > 30 | + (<10: +) | ++++ (≥30: ++++) |
| CCCC[C@@H]1NC(=O)[C@H](CC(C)C)NC(=O)[C@H]([C@@H](C)O)NC(=O)[C@@](C)(NC(=O)[C@H](CCC(=O)O)NC(=O)[C@H](CC(=O)O)NC(=O)[C@@H](NC(=O)[C@H](Cc2ccccc2)NC(C)=O)[C@@H](C)CC)CCCC=CCCCC2(CCCC=CCCC[C@](C)(C(=O)N[C@@H](CCCC)C(=O)N[C@@H](C)C(=O)N[C@@H](CC(C)C)C(N)=O)NC(=O)[C@H]([C@@H](C)CC)NC(=O)[C@H](C(C)C)NC(=O)[C@H](CC(C)C)NC2=O)NC1=O (stereo partly drawn) [SP-207] | ≤ 200 | > 30 | + (<10: +) | ++++ (≥30: ++++) |
| CCCC[C@@H]1NC(=O)[C@H](CC(C)C)NC(=O)[C@H](C(C)C)NC(=O)[C@@](C)(NC(=O)[C@H](CCC(=O)O)NC(=O)[C@H](CC(=O)O)NC(=O)[C@@H](NC(=O)[C@H](Cc2ccccc2)NC(C)=O)[C@@H](C)CC)CCCC=CCCCC2(CCCC=CCCC[C@](C)(C(=O)N[C@@H](CCCC)C(=O)N[C@@H](C)C(=O)N[C@@H](CC(C)C)C(N)=O)NC(=O)[C@H]([C@@H](C)CC)NC(=O)[C@H](C(C)C)NC(=O)[C@H](CC(N)=O)NC2=O)NC1=O (stereo partly drawn) [SP-210] | 200 to 400 | 5 to 15 | ++++ (≥50: ++++) | + (<5: +) |
| CCCC[C@@H]1NC(=O)[C@H](CC(C)C)NC(=O)[C@H](C(C)C)NC(=O)[C@@](C)(NC(=O)[C@H](CCC(=O)O)NC(=O)[C@H](CC(=O)O)NC(=O)[C@@H](NC(=O)[C@H](Cc2ccccc2)NC(C)=O)[C@@H](C)CC)CCCC=CCCCC2(CCCC=CCCC[C@](C)(C(=O)N[C@@H](C)C(=O)N[C@@H](C)C(=O)N[C@@H](CC(C)C)C(N)=O)NC(=O)[C@H]([C@@H](C)CC)NC(=O)[C@H](C(C)C)NC(=O)[C@H](CC(C)C)NC2=O)NC1=O (stereo partly drawn) [SP-211] | 200 to 400 | > 30 | + (<10: +) | ++++ (≥30: ++++) |
| CCCC[C@@H]1NC(=O)[C@H](CC(C)C)NC(=O)[C@H](C(C)C)NC(=O)[C@@](C)(NC(=O)[C@H](CCC(=O)O)NC(=O)[C@H](CC(=O)O)NC(=O)[C@@H](NC(=O)[C@H](Cc2ccccc2)NC(C)=O)[C@@H](C)CC)CCCC=CCCCC2(CCCC=CCCC[C@](C)(C(=O)N[C@@H](CCC(N)=O)C(=O)N[C@@H](C)C(=O)N[C@@H](CC(C)C)C(N)=O)NC(=O)[C@H]([C@@H](C)CC)NC(=O)[C@H](C(C)C)NC(=O)[C@H](CC(C)C)NC2=O)NC1=O (stereo partly drawn) [SP-212] | 200 to 400 | 5 to 15 | ++++ (≥50: ++++) | ++ (≤5 but <15: ++) |
| CCCC[C@@H]1NC(=O)[C@H](CC(C)C)NC(=O)[C@H](C(C)C)NC(=O)[C@@](C)(NC(=O)[C@H](CCC(=O)O)NC(=O)[C@H](CC(=O)O)NC(=O)[C@@H](NC(=O)[C@H](Cc2ccccc2)NC(C)=O)[C@@H](C)CC)CCCC=CCCCC2(CCCC=CCCC[C@](C)(C(=O)N[C@@H](CCCNC(=N)N)C(=O)N[C@@H](C)C(=O)N[C@@H](CC(C)C)C(N)=O)NC(=O)[C@H]([C@@H](C)CC)NC(=O)[C@H](C(C)C)NC(=O)[C@H](CC(C)C)NC2=O)NC1=O (stereo partly drawn) [SP-213] | > 700 | > 30 | + (<10: +) | ++++ (≥30: ++++) |
| CC[C@H](C)[C@H](NC(=O)[C@H](C)NC(C)=O)C(=O)N[C@@H](CC(=O)O)C(=O)N[C@@H](CCC(=O)O)C(=O)N[C@@H](CCC(=O)O)C(=O)N[C@H](C(=O)N[C@@H](CC(C)C)C(=O)N[C@@H](CCSC)C(=O)N[C@@]1(C)CCCC=CCCC[C@@](C)(C(=O)N[C@@H](CCSC)C(=O)N[C@@H](C)C(=O)N[C@@H](CC(C)C)C(N)=O)NC(=O)[C@H]([C@@H](C)CC)NC(=O)[C@H](C(C)C)NC(=O)[C@H](CC(C)C)NC1=O)C(C)C [SP-217] (Ac-AIDEEVLM[S5]LVI[S5]MAL-NH2; staple 9-13) | > 700 | > 30 | +++ (≤25 but <50: +++) | ++++ (≥30: ++++) |
